Measurements as given in patent US20040248801A1, “Methods and reagents for regulation of cellular responses in biological systems” (priority 2000, published 2004).

Assays:
B. subtilis 011085 = assay: B. subtilis capillary accumulation assay; format: cell-based, Bacillus subtilis; settings: saccharide residue concentration; 37° C., 30 min
Description: FIG. 4: Results of B. subtilis capillary accumulation assays using ROMP-derived glucose ligands (compound 5-7, Scheme 1). Buffer alone, glucose, or glucose-bearing compounds 5-7 were used as attractants in the capillary accumulation assay. Results are shown for glucose, compound 5, compound 6, and compound 7. Results are the average of at least four trials performed in duplicate and error bars represent single standard deviations.
To test the generality of the observed valency-dependent differences in chemotactic activities and to investigate the role of membrane permeability in responses to our ligands, chemotactic experiments in B. subtilis were conducted. B. subtilis is a gram-positive bacterium that, like gram-negative E. coli, is able to respond to saccharide chemoattractants. In the case of B. subtilis, the multivalent ligands can directly interact with saccharide-sensing receptors, without having to first traverse the outer membrane. Glucose is a chemoattractant for B. subtilis, but galactose is not. Glucose-carrying ligands (compounds 5-7, Scheme 1) were effective chemoattractants for B. subtilis as shown in capillary accumulation assays. […] Free chemoattractant signal glucose had maximal activity as a chemoattractant at 0.5 mM. In analogy to observations with E. coli, as the valency of the ligand increases, the saccharide residue concentration of maximum chemotaxis decreases. […] The results observed indicate that in evolutionarily divergent bacteria E. coli and B. subtilis, the valency of the attractant influences chemotactic response.
E. coli from an overnight culture were grown in LB to OD550 0.4-0.6, washed twice with E. coli chemotaxis buffer, and then partially permeabilized. Bacteria were resuspended in chemotaxis buffer to an OD550 0.1 and utilized in the capillary accumulation assay at 30° C. for 60 min, as previously described. […] Data was analyzed using the Q and Students tests.

E. coli AW405 = assay: video microscopy motion analysis of bacteria; format: cell-based, Escherichia coli; settings: first 5-15 seconds after addition of attractant
Experimental: FIG. 2A: Results of video microscopy motion analysis experiments. Bacteria (Escherichia coli) were treated with buffer alone, galactose, or compound 1 or 3 (Scheme 1) at the indicated saccharide concentrations. The results represent the average from at least five independent experiments performed in triplicate. Error bars represent the deviation between per-second averages during the ten second interval.
Ligands functionalized with galactose such as monovalent ligand 1 and multivalent ligand 3, also serve as attractants in vivo. […] To observe the effects of synthetic ligands on tumbling frequency, E. coli were treated with galactose or galactose-bearing ligands, and bacterial motion was recorded and analyzed using the method of Sager et al.. The tumbling frequency was assessed by averaging the mean angular velocity of the paths obtained in the first 5-15 seconds after addition of attractant (FIG. 2A). […]
Partially permeabilized bacteria (25 μM EDTA for 3 min. at room temperature, then quench with 50 μM CaCl2) at an OD550 of 0.1 were placed under a cover slip supported by additional cover slips in the method of Sager et al.. […] The bacterial motion at 28° C. was recorded, and the paths were analyzed using the ExpertVision system. Paths derived from the first 5 to 15 seconds following the introduction of attractant were analyzed. […] Data were analyzed using the Q and Students tests.

E. coli = settings: galactose as attractant [34]; cited from earlier work
Jurkat cells = assay: Jurkat cell aggregation; format: cell-based
Experimental: Percent of Jurkat cells present in aggregates is plotted against the treatment. […] Aggregate formation could be inhibited by addition of 50 mM methyl a-D-mannopyranoside (a man). Compounds 9-12 were added to a final mannose concentrations of 0.5 μM or 5 μM along with a final ConA concentration of 5 μg/mL. Results are the average of at least three independent experiments and error bars represent single standard deviations.
The ability of Con A clusters formed on ROMP-derived polymers to aggregate Jurkat cells was examined initially by light microscopy (see FIG. 10). […] For Jurkat cells, inhibition occurred even at low concentrations (0.5 μM) of monovalent ligands. […] Increasing the concentration of the multivalent ligand 10-fold (5 μM) abolished aggregation activity, consistent with site saturation. […] The ability of Con A complexed to multivalent ligands to interact with cell surfaces was thus tunable. […]
Cells were pelleted at 400×g, resuspended gently into 50 μL PBS, and then added to slides for visualization at 200× magnification on a Zeiss Axioscope outfitted with the appropriate filter set. Approximately 100-200 cells were counted from random fields on each day.
Clusters were scored for at least two cells in direct contact with each other and expressed as a percentage of the total number of objects (individual cells and clusters) counted. […]

His-tagged FGF-8b = molecular target: T1, His-tagged FGF-8b (Homo sapiens, UniProt P55075); assay: cross-linking of FGF-8b (EGS, SDS-PAGE); format: binding; settings: increasing ratio of polymer or heparin to FGF-8b
T1 sequence (P55075 23-215 isoform P55075-3 limits assumed): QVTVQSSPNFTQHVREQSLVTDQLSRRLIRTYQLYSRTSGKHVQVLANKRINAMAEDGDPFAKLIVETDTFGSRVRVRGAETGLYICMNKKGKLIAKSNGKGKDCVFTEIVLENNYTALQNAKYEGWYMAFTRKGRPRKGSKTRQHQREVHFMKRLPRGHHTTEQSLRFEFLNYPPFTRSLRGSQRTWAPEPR
Experimental: FIGS. 15A and B are illustrations of SDS-PAGE-gels (12%, under reducing conditions) comparing cross-linking of FGF-8b mediated by nickel-chelating polymer (FIG. 15A) and heparin (FIG. 15B). FGF-8b was incubated with polymer 6 for 1 hour at 0° C. The ratio of FGF-8b to polymer was as follows: a. 1:0.001, b. 1:0.003, c. 1:0.01, d. 1:0.03, e. 1:0.1, f. 1:0.3, f. 1:1. EGS (ethylene glycol bis[succinimidylsuccinate]) was added, and cross-linking was allowed to proceed for 5 minutes at 0° C. The reactions were quenched with ethanolamine (excess) for 1 hour at 0° C. Samples were concentrated under vacuum, analyzed on a 12% SDS-PAGE gel under reducing conditions, and detected with Coomassie staining.
Specifically, one of the functions of the oligosaccharide heparin in vitro is to oligomerize FGF ligand proteins and present them to the FGF receptor in a multivalent fashion. […]
FGF-8b was incubated with polymer 6 for 1 hour at 0° C. […] Samples were concentrated under vacuum, analyzed on a 12% SDS-PAGE gel under reducing conditions, and detected with Coomassie staining.
FGF-8b was incubated with heparin (Sigma, porcine intestinal mucosa, 17-19 kDa) for 1 hour at 0° C. […] Samples were concentrated under vacuum, analyzed on a 12% SDS-PAGE gel under reducing conditions, and detected with Coomassie staining. […]

Compound: O=C(NCCOC1OC(CO)C(O)C(O)C1O)C1C[C@@H]2C=CC1C2 (stereo partly shown) [Compound 5]
- concentration of maximum activity as chemoattractant (B. subtilis 011085): 1 mM

Compound: O=C[C@H](O)[C@@H](O)[C@@H](O)[C@H](O)CO [galactose, reference compound]
- mean angular velocity (tumbling frequency) after addition of attractant (E. coli AW405): the mean angular velocity decreased
- number of E. coli accumulated (E. coli): 120,000 bacteria

Compound: O=C[C@H](O)[C@@H](O)[C@H](O)[C@H](O)CO [glucose, reference compound]
- concentration of maximum activity as chemoattractant (B. subtilis 011085): 0.5 mM

Compound: CO[C@H]1O[C@H](CO)[C@@H](O)[C@H](O)[C@@H]1O [methyl α-D-mannopyranoside]
- effect on Con A aggregate formation (Jurkat cells; 50 mM): inhibited
- effect on Con A-mediated Jurkat cell aggregation (Jurkat cells; ligand 0.5 μM premixed with Con A 5 μg/mL): inhibited aggregation

Compound: heparin
- cross-linking pattern of FGF-8b (His-tagged FGF-8b): pattern in cross-linking indicative of oligomerization due to a specific ligand/scaffold interaction
